Data reported in PMC6900016, “Synthesis of Indomorphan Pseudo‐Natural Product Inhibitors of Glucose Transporters GLUT‐1 and ‐3” (Angewandte Chemie (International Ed. in English), 2019).

test system: HCT116; test: cells; parameters: 2-deoxyglucose uptake inhibition, semi-automated resazurin/diaphorase fluorescence read-out of 2DG6P; conditions: Homo sapiens, HCT-116, 0.5 h; 2DG uptake
Procedure: Resazurin-based 2DG uptake assay (semi-automated high throughput) All buffers, reagents and steps were identical with those described for the manual screening Washing and [compound left out] addition steps were done using an automated cell washer or a multidrop device, respectively. Screening was performed in a 384-well plates. 15,000 HCT116 cells/well seeded into 384-well black-walled, clear bottomed plates (CellBIND, Corning) and incubated overnight. Compounds were added at 30 µM (final concentration for screening or serial dilutions staring from 30 µM for IC50 determinations) from DMSO stocks using the acoustic nanoliter dispenser ECHO 520. Fluorescence intensity was read from the bottom with a SpectraMax Paradigm Multi-Mode Microplate Reader (Molecular devices) using SUPPORTING INFORMATION 259 control (which was set to 100 %) and cells without 2DG (set to 0 %) using Graph Pad Prism 5 or 6 software and IC50 values were determined using a four-parameter fit. The observed difference in the obtained IC50 values for Glupin in the automated screening vs. manually performed assay is most likely attributed to the minituarization that is required for high-troughput screening and usually requires different plate format (384 vs. 96-well plates) and different cell number. In this case, the automated assay was performed in 384-well plates (vs. 96-well plates for the manual assay) with 15,000 cells per well (vs. 40,000 cells per well in the 96-well plates). For kinetic measurements, 15,000 cells were seeded into black CellBIND 384-well plates (Corning) and allowed to attach overnight. Then, the plates were washed 3X with KRB buffer containing 0.1%BSA and treated with different concentrations of 2DG (0-60mM) and Glupin (0-1µM) for 30s to 30min. The uptake was determined using the resazurin/diaphorase system as described above. 2DG uptake was stopped by aspirating the 2DG solution followed by quick wash with ice-cold KRB buffer (0.1 % BSA). Km and Vmax were determined by fitting the data according to Michaelis-Menten using non-linear fitting. The glucose uptake assay monitored the inhibition of 2‐deoxyglucose (2DG) uptake as described by Yamamoto et al.25 Briefly, 2DG uptake is determined by quantification of the 2DG‐6‐phosphate (2DG6P) that accumulates inside the cells by using the diaphorase‐resazurin/‐resorufin system (see Figure S7 a).

Q: For `COC1CN(C(=O)c2cccnc2SC)C2Cc3c(n(CC(=O)OC(C)(C)C)c4ccccc34)C1C2` (racemic) [5k, (±)-tert-butyl 2-(5-methoxy-3-(2-(methylthio)nicotinoyl)-3,4,5,6-tetrahydro-1H-2,6-methanoazocino[5,4-b]indol-7(2H)-yl)acetate], which IC50 is on record?
A: 190 ± 60 nM

Q: With `CCOC(=O)Cn1c2c(c3ccccc31)CC1CC2C(OC)CN1C(=O)c1cccnc1F` (racemic) [5u, (±)-Ethyl 2-(3-(2-fluoronicotinoyl)-5-methoxy-1,2,3,4,5,6-hexahydro-7H-2,6-methanoazocino[5,4-b]indol-7-yl)acetate] as the molecule, how does the IC50 read?
A: 540 ± 160 nM

Q: With `CNC(=O)Cn1c2c(c3ccccc31)CC1CC2C(OC)CN1C(=O)Cc1cccs1` (stereo not shown) [5au] as the molecule, how does the IC50 read?
A: 16000 ± 1000 nM

Q: Which IC50 does the source give for `CCOC(=O)Cn1c2c(c3ccccc31)CC1CC2C(OC(C)=O)CN1C(=O)c1cccnc1SC` (racemic) [5b, (±)-Ethyl 2-(5-acetoxy-3-(2-(methylthio)nicotinoyl)-1,2,3,4,5,6-hexahydro-7H-2,6-methanoazocino[5,4-b]indol-7-yl)acetate] here?
A: 53 ± 23 nM

Q: For `COC1CN(C(=O)c2cnccn2)C2Cc3c(n(CC(N)=O)c4ccccc34)C1C2` (stereo not shown) [5ax], which IC50 is on record?
A: > 30000 nM

Q: With `C=CCOC1CN(C(=O)c2cccnc2SC)C2Cc3c(n(CC(=O)OCC)c4ccccc34)C1C2` (racemic) [5z, (±)-Ethyl 2-(5-(allyloxy)-3-(2-(methylthio)nicotinoyl)-1,2,3,4,5,6-hexahydro-7H-2,6-methanoazocino[5,4-b]indol-7-yl)acetate] as the molecule, how does the IC50 read?
A: 120 ± 20 nM

Q: `CCOC(=O)Cn1c2c(c3ccccc31)CC1CC2C(OC)CN1C(=O)c1cccnc1OCC` (racemic) [5ak, (±)-Ethyl 2-(3-(2-ethoxynicotinoyl)-5-methoxy-1,2,3,4,5,6-hexahydro-7H-2,6-methanoazocino[5,4-b]indol-7-yl)acetate] was tested. Which IC50 did it give?
A: 220 ± 70 nM

Q: For `COC1CN(C(=O)c2cccnc2SC)C2Cc3c(n(Cc4ccco4)c4ccccc34)C1C2` (racemic) [5o, (±)-(7-(furan-2-ylmethyl)-5-methoxy-5,6-dihydro-1H-2,6-methanoazocino[5,4-b]indol-3(2H,4H,7H)-yl)(2-(methylthio)pyridin-3-yl)methanone], which IC50 is on record?
A: 6700 ± 2400 nM

Q: For `CCOC(=O)Cn1c2c(c3ccccc31)CC1CC2C(OC)CN1C(=O)c1cncnc1` (racemic) [5ap, (±)-Ethyl 2-(5-methoxy-3-(pyrimidine-5-carbonyl)-1,2,3,4,5,6-hexahydro-7H-2,6-methanoazocino[5,4-b]indol-7-yl)acetate], which IC50 is on record?
A: 14000 ± 5000 nM

Q: With `CCOC(=O)n1c2c(c3ccccc31)CC1CC2C(OC)CN1C(=O)c1cccnc1SC` (racemic) [5p, (±)-ethyl 5-methoxy-3-(2-(methylthio)nicotinoyl)-3,4,5,6-tetrahydro-1H-2,6-methanoazocino[5,4-b]indole-7(2H)-carboxylate] as the molecule, how does the IC50 read?
A: 28000 ± 2000 nM

Q: Which IC50 does the source give for `CCOC(=O)Cn1c2c(c3cc(C(=O)N4CCOCC4)ccc31)CC1CC2C(OC)CN1C(=O)c1cccnc1SC` (racemic) [5ab, (±)-Ethyl 2-(5-methoxy-3-(2-(methylthio)nicotinoyl)-10-(morpholine-4-carbonyl)-1,2,3,4,5,6-hexahydro-7H-2,6-methanoazocino[5,4-b]indol-7-yl)acetate] here?
A: > 30000 nM

Q: How did the IC50 turn out when `CNC(=O)Cn1c2c(c3ccccc31)CC1CC2C(OC)CN1C(=O)N1CCOCC1` (stereo not shown) [5ay] was run?
A: > 30000 nM

Q: For `CCOC(=O)Cn1c2c(c3ccccc31)CC1CC2C(O)CN1C(=O)c1cccnc1SC` (racemic) [5c, (±)-Ethyl 2-(5-hydroxy-3-(2-(methylthio)nicotinoyl)-1,2,3,4,5,6-hexahydro-7H-2,6-methanoazocino[5,4-b]indol-7-yl)acetate], which IC50 is on record?
A: 130 ± 50 nM

Q: Which IC50 does the source give for `CCOC(=O)Cn1c2c(c3ccccc31)CC1CC2C(OC)CN1C(=O)c1cccnc1N1CCOCC1` (racemic) [5al, (±)-Ethyl 2-(5-methoxy-3-(2-morpholinonicotinoyl)-1,2,3,4,5,6-hexahydro-7H-2,6-methanoazocino[5,4-b]indol-7-yl)acetate] here?
A: 1400 ± 200 nM

Q: With `CCOC(=O)Cn1c2c(c3cc(O)ccc31)CC1CC2C(OC)CN1C(=O)c1cccnc1SC` (racemic) [5f, (±)-Ethyl 2-(-10-hydroxy-5-methoxy-3-(2-(methylthio)nicotinoyl)-1,2,3,4,5,6-hexahydro-7H-2,6-methanoazocino[5,4-b]indol-7-yl)acetate] as the molecule, how does the IC50 read?
A: 100 ± 60 nM

Q: `CCOC(=O)Cn1c2c(c3ccccc31)CC1CC2C(OC)CN1C(=O)c1cccnc1` (racemic) [5t, (±)-Ethyl 2-(5-methoxy-3-nicotinoyl-3,4,5,6-tetrahydro-1H-2,6-methanoazocino[5,4-b]indol-7(2H)-yl)acetate] was tested. Which IC50 did it give?
A: 2300 ± 800 nM

Q: Which IC50 does the source give for `COC1CN(C(=O)c2cccnc2SC)C2Cc3c(n(CC(=O)Oc4ccccc4)c4ccccc34)C1C2` (racemic) [5ae, (±)-phenyl 2-(5-methoxy-3-(2-(methylthio)nicotinoyl)-3,4,5,6-tetrahydro-1H-2,6-methanoazocino[5,4-b]indol-7(2H)-yl)acetate] here?
A: 220 ± 80 nM

Q: For `CCCOC1CN(C(=O)c2cccnc2SC)C2Cc3c(n(CC(=O)OCC)c4ccccc34)C1C2` (racemic) [5d, (±)-Ethyl 2-(3-(2-(methylthio)nicotinoyl)-5-propoxy-1,2,3,4,5,6-hexahydro-7H-2,6-methanoazocino[5,4-b]indol-7-yl)acetate], which IC50 is on record?
A: 87 ± 15 nM

Q: How did the IC50 turn out when `CCOC(=O)Cn1c2c(c3ccccc31)CC1CC2C(OC)CN1C(=O)c1ccc(C)o1` (racemic) [5at, (±)-Ethyl 2-(5-methoxy-3-(5-methylfuran-2-carbonyl)-1,2,3,4,5,6-hexahydro-7H-2,6-methanoazocino[5,4-b]indol-7-yl)acetate] was run?
A: 8600 ± 4000 nM

Q: Which IC50 does the source give for `CCOC(=O)Cn1c2c(c3ccccc31)CC1CC2C(OC)CN1C(=O)c1cccnc1Br` (racemic) [5aj, (±)-Ethyl 2-(3-(2-bromonicotinoyl)-5-methoxy-1,2,3,4,5,6-hexahydro-7H-2,6-methanoazocino[5,4-b]indol-7-yl)acetate] here?
A: 180 ± 60 nM

Q: Which IC50 does the source give for `COC1CN(C(=O)c2cccnc2SC)C2Cc3c([nH]c4ccccc34)C1C2` (racemic) [5j, (±)-(5-methoxy-1,2,4,5,6,7-hexahydro-3H-2,6-methanoazocino[5,4-b]indol-3-yl)(2-(methylthio)pyridin-3-yl)methanone] here?
A: > 30000 nM

Q: How did the IC50 turn out when `CCOC(=O)Cn1c2c(c3ccccc31)CC1CC2C(OC)CN1C(=O)c1c(C(F)(F)F)ccnc1SC` (racemic) [5x, (±)-Ethyl 2-(5-methoxy-3-(2-(methylthio)-4-(trifluoromethyl)nicotinoyl)-1,2,3,4,5,6-hexahydro-7H-2,6-methanoazocino[5,4-b]indol-7-yl)acetate] was run?
A: 6700 ± 1600 nM

Q: `CCOC(=O)Cn1c2c(c3ccccc31)CC1CC2C(OC)CN1C(=O)c1cccnc1OC` (racemic) [5v, (±)-Ethyl 2-(5-methoxy-3-(2-methoxynicotinoyl)-1,2,3,4,5,6-hexahydro-7H-2,6-methanoazocino[5,4-b]indol-7-yl)acetate] was tested. Which IC50 did it give?
A: 230 ± 50 nM

Q: Which IC50 does the source give for `CCOC(=O)Cn1c2c(c3ccccc31)CC1CC2C(OC)CN1C(=O)c1cc(C(F)(F)F)cnc1SC` (racemic) [5y, (±)-Ethyl 2-(5-methoxy-3-(2-(methylthio)-5-(trifluoromethyl)nicotinoyl)-1,2,3,4,5,6-hexahydro-7H-2,6-methanoazocino[5,4-b]indol-7-yl)acetate] here?
A: 14000 ± 4000 nM

Q: `CCOC(=O)Cn1c2c(c3ccccc31)CC1CC2C(OC)CN1C(=O)c1cccs1` (racemic) [5aq, (±)-Ethyl 2-(5-methoxy-3-(thiophene-2-carbonyl)-1,2,3,4,5,6-hexahydro-7H-2,6-methanoazocino[5,4-b]indol-7-yl)acetate] was tested. Which IC50 did it give?
A: 3000 ± 400 nM
